# Test results as given in patent US20080069814A1, “Prevention of Thrombotic Disorders with Active Vitamin D Compounds or Mimics Thereof” (Novacea, Inc., priority 2005, published 2008).
# Assays:
# [1] = test system: patients with prostate cancer; test: Phase II clinical trial: Taxotere with or without calcitriol by HDPA, cardiovascular events; assay type: in vivo, human; settings: 125 patients per arm; calcitriol three 15 μg capsules once a week on the day prior to Taxotere 75 mg/m^2
# Source text: Two hundred fifty patients with prostate cancer were enrolled at 58 centers in the United States and Canada. All patients in the study received chemotherapy treatment with Taxotere®, a drug in the taxoid class of chemotherapeutic agents. […] Oral dexamethasone is also given along with the Taxotere® to minimize certain side effects (allergic reactions and fluid retention) associated with Taxotere®.
# In addition to Taxotere® and dexamethasone, half of the patients were randomly treated with calcitriol and the other half received a placebo. Calcitriol was administered as three capsules of 15 μg each once a week on the day prior to chemotherapy. […] The same Taxotere® doses of 75 mg/m^2 body surface area were administered to the patients receiving Taxotere® alone or Taxotere® in combination with calcitriol.
# [2] = test system: thrombomodulin (“TM”); settings: in vitro, cultured monocytic cells including human peripheral monocytes; cited from earlier work
# [3] = test system: TF; settings: in vitro, cultured monocytic cells including human peripheral monocytes; cited from earlier work
# [4] = test system: patients suffering from non-small-cell carcinoma of the lung; settings: in vivo, sc; cited from earlier work
# [5] = test system: women with metastatic breast cancer; settings: cited from earlier work
# [6] = test system: venous thromboembolism (VTE); settings: in vivo; cited from earlier work
# [7] = test system: patients receiving heparin; settings: cited from earlier work
compound,measurement,setting,value
CC(=O)O[C@@]12CO[C@@H]1C[C@H](O)[C@@]1(C)C(=O)[C@H](O)C3=C(C)[C@@H](OC(=O)[C@H](O)[C@@H](NC(=O)OC(C)(C)C)c4ccccc4)C[C@@](O)([C@@H](OC(=O)c4ccccc4)[C@H]21)C3(C)C [Taxotere®],Patients who developed deep vein thrombosis or thrombophlebits,[1],six of 125
same,Patients who developed myocardial infractions or myocardial ischemia,[1],two of 125
same,Patients who had a stroke (cerebrovascular events),[1],two of 125
"C=C1/C(=C\C=C2/CCC[C@]3(C)[C@@H]([C@H](C)CCCC(C)(C)O)CC[C@@H]23)C[C@@H](O)C[C@@H]1O [calcitriol, 1α,25-dihydroxyvitamin D3]",Expression of the anticoagulant thrombomodulin,[2],up-regulating the expression
same,Expression of TF,[3],down-regulating the expression
"epoetin alfa: erythropoiesis-stimulating agent, FDA-approved drug EPOGEN",Median survival versus placebo,[4],significant difference in the median survival in favor of patients on the placebo arm
same,Kaplan-Meier estimated 12-month survival rate,[5]; in vivo,70%
same,Mortality at 4 months,"[5]; weekly epoetin alfa for up to a year, interim results",8.7%
same,Rate of fatal thrombotic events,"[5]; weekly epoetin alfa, interim results",1.1%
erythropoietin: erythropoiesis-stimulating agent,Association with VTE,[6],significantly associated with VTE
heparin,"Patients with immunologic reaction resulting in heparin-induced thrombocytopenia (HIT), average",[7],5%
